ChEMBL document CHEMBL6127086, “Recent advances in dual PROTACs degrader strategies for disease treatment” (Eur J Med Chem, 2024)
Each block holds one compound with its values, some of them ahead of it. Starred links: 1 amine or outer side, 2 acyl side, 3 side chain; linkers in the order of their positions; H or OH if unused. Non-standard residues stand in square brackets, D forms with d. Residues, ends and D or L forms follow the SMILES beside them. *: point of attachment. X1 = O=C([C@H](Cc1ccc(C(F)(F)P(=O)(O)O)cc1)O[*:1])[*:2]; NHCH2(1,3-C6H4)CH2CO = O=C(Cc1cccc(CN[*:1])c1)[*:2]; Phenylacetyl(4-OH,3-OMe) = COc1cc(CC(=O)*)ccc1O; Benzoyl(3-Br,4-Me) = Cc1ccc(C(=O)*)cc1Br; X2 = Cc1ncsc1-c1ccc([C@@H](C)N*)cc1; Hyp = O=C(O)[C@@H]1C[C@@H](O)CN1; Tle = CC(C)(C)[C@H](N)C(=O)O

Assays:
[1] = target: Protein cereblon/Bromodomain-containing protein 2 (Homo sapiens, UniProt P25440+Q96SW2); experiment: PROTAC activity at CRBN/BRD2 in human MV4-11 cells assessed as degradation of BRD2 protein incubated for 4 hrs by Western blotting assay; type: cell-based
[2] = target: Protein cereblon/Bromodomain-containing protein 3 (Homo sapiens, UniProt Q15059+Q96SW2); experiment: PROTAC activity at CRBN/BRD3 in human MV4-11 cells assessed as degradation of BRD3 protein incubated for 4 hrs by Western blotting assay; type: cell-based
[3] = target: von Hippel-Lindau disease tumor suppressor/WD repeat-containing protein 5 (Homo sapiens, UniProt P61964+P40337); experiment: PROTAC activity at VHL/WDR5 in human MIA PaCa-2 cells assessed as degradation of WDR5 protein incubated for 18 hrs by Western blotting analysis; type: cell-based
Cereblon/Ikaros [4] = target: T1, Cereblon/Ikaros (Homo sapiens, UniProt Q96SW2+Q13422); experiment: PROTAC activity at CRBN/IKZF1 in human MV4-11 cells assessed as degradation of IKZF1 protein incubated for 18 hrs by Western blotting analysis; type: cell-based
Cereblon/Ikaros [5] = target: T1, Cereblon/Ikaros; experiment: PROTAC activity at CRBN/IKZF1 in human MV4-11 cells assessed as maximum degradation of protein at 0.1 uM incubated for 18 hrs by Western blotting analysis relative to control; type: cell-based
[6] = target: von Hippel-Lindau disease tumor suppressor/Bromodomain-containing protein 4 (Homo sapiens) (UniProt O60885+P40337); experiment: PROTAC activity at human VHL/BRD4 in human HT-1080 cells assessed as maximum degradation of BRD4 at 0.2 uM incubated for 24 hrs by Western blot analysis relative to control; type: cell-based
[7] = target: T2, Protein cereblon/Bromodomain-containing protein 4 (Homo sapiens, UniProt O60885+Q96SW2); experiment: PROTAC activity at CRBN/BRD4 (unknown origin) expressed in HEK293 cells assessed as induction of BRD4 degradation measured after 4 hrs by Western blot analysis; type: cell-based
[8] = target: T2, Protein cereblon/Bromodomain-containing protein 4; experiment: PROTAC activity at CRBN/BRD4 (unknown origin) expressed in HEK293 cells assessed as induction of BRD4 degradation incubated for 6 hrs by Western blot analysis; type: cell-based
RKO = experiment: Antiproliferative activity against human RKO cells assessed as reduction in cell viability by Celltiter-glo reagent based analysis; type: functional
[9] = target: T3, von Hippel-Lindau disease tumor suppressor/Bromodomain-containing protein 2 (Homo sapiens, UniProt P25440+P40337); experiment: PROTAC activity at human VHL/BRD2 in human HeLa cells assessed as degradation of BRD2 incubated for 16 hrs by Western blot analysis; type: cell-based
[10] = target: T4, Protein cereblon/Tyrosine-protein phosphatase non-receptor type 1 (Homo sapiens, UniProt P18031+Q96SW2); experiment: PROTAC activity at PTP1B/CRBN human HepG2 cells assessed as protein degradation incubated for 16 hrs by Western blot analysis; type: cell-based
[11] = target: T4, Protein cereblon/Tyrosine-protein phosphatase non-receptor type 1; experiment: PROTAC activity at PTP1B/CRBN human HepG2 cells assessed as protein degradation incubated for 24 hrs by Western blot analysis; type: cell-based
[12] = target: Protein cereblon/Cyclin-dependent kinase 4 (Homo sapiens, UniProt P11802+Q96SW2); experiment: Protac activity at CRBN/CDK4 in human MDA-MB-231 cells assessed as induction of CDK4 degradation measured after 6 hrs by Western blot analysis; type: cell-based
[13] = target: Protein cereblon/Cyclin-dependent kinase 6 (Homo sapiens, UniProt Q00534+Q96SW2); experiment: Protac activity at CRBN/CDK6 in human MDA-MB-231 cells assessed as induction of CDK6 degradation measured after 18 hrs by Western blot analysis; type: cell-based
[14] = target: Protein cereblon/CREB-binding protein (Homo sapiens) (UniProt Q92793+Q96SW2); experiment: PROTAC activity at CRBN/CBP in human MV4-11 cells assessed as induction of protein degradation by measuring maximal degradation at 250 nM incubated for 24 hrs by Western blotting analysis relative to control; type: cell-based
[15] = Antiproliferative activity against human MINO cells assessed as reduction in cell viability incubated fro 72 hrs by Celltiter-glo reagent based analysis; type: functional
OVCAR-8 = experiment: Antiproliferative activity against human OVCAR-8 cells assessed as inhibition of growth rate measured for 72 hrs; type: functional
[16] = target: von Hippel-Lindau disease tumor suppressor/Bcl-2-like protein 1 (Homo sapiens, UniProt Q07817+P40337); experiment: PROTAC activity at VHL/BCL-XL in human Jurkat cells assessed as induction of BCL-XL degradation incubated for 16 hrs by immunoblot analysis; type: cell-based
[17] = target: T3, von Hippel-Lindau disease tumor suppressor/Bromodomain-containing protein 2; experiment: PROTAC activity at VHL/BRD2 in human 22Rv1 cells assessed as degradation of BRD2 incubated for 16 hrs by Western blot analysis; type: cell-based
CWR22R = experiment: Antiproliferative activity against human 22Rv1 cells assessed as reduction in cell viability incubated for 72 hrs by Celltiter- Glo assay; type: functional, cell-based; conditions: 22Rv1, 72 h
VCaP = experiment: Antiproliferative activity against human VCaP cells assessed as reduction in cell viability incubated for 72 hrs by Celltiter- Glo assay; type: functional, cell-based
[18] = Antiproliferative activity against human LNCaP-95 cells assessed as reduction in cell viability incubated for 72 hrs by Celltiter- Glo assay; type: functional, cell-based; conditions: LNCaP-95, 72 h

T4 sequence (P18031 whole entry): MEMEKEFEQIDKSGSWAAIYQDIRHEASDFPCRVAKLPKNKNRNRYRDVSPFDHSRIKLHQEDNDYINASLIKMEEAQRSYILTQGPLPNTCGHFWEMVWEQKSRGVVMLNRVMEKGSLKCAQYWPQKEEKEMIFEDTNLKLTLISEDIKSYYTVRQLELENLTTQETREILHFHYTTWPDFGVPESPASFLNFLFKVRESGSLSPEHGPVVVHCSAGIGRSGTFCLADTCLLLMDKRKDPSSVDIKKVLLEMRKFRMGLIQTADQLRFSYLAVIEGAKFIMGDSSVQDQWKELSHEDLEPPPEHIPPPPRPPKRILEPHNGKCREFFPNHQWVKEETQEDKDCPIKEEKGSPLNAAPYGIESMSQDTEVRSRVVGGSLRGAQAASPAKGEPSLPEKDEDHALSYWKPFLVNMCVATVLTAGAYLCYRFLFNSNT
T4 sequence (Q96SW2 whole entry): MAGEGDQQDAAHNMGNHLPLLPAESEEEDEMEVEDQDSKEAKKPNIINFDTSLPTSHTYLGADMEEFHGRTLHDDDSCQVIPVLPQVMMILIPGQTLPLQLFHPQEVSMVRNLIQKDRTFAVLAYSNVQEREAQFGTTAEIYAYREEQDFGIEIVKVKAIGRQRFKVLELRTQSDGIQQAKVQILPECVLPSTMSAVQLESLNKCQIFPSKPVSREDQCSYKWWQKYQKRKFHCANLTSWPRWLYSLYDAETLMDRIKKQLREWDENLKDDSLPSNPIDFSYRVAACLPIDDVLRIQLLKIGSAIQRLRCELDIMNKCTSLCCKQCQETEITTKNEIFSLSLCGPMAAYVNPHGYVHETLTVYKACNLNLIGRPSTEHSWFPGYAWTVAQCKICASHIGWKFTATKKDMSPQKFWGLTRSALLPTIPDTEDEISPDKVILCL
T2 sequence (Q96SW2 whole entry, looked up, other chains not shown): as the sequence (Q96SW2 whole entry) above
T3 sequence (P25440 whole entry): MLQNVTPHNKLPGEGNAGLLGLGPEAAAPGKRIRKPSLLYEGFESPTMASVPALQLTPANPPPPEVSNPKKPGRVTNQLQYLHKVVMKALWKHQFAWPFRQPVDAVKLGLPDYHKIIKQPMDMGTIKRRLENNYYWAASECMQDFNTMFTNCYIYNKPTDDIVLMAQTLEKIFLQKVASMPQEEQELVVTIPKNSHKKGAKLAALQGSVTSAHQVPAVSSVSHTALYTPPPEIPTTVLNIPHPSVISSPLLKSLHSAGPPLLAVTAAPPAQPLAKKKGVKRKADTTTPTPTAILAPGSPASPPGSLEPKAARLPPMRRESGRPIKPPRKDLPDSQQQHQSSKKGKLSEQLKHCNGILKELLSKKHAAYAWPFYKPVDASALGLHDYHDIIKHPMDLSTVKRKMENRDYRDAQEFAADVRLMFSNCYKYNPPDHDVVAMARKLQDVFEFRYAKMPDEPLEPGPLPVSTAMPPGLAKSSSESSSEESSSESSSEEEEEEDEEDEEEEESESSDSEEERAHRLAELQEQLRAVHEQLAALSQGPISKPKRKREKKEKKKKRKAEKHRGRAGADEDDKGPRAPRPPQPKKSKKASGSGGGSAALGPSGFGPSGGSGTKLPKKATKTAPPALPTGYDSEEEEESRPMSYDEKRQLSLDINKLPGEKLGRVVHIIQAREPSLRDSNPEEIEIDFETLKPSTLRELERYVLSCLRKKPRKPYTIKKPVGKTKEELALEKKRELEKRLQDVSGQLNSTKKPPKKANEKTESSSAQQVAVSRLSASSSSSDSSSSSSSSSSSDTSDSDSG
T3 sequence (P40337 whole entry): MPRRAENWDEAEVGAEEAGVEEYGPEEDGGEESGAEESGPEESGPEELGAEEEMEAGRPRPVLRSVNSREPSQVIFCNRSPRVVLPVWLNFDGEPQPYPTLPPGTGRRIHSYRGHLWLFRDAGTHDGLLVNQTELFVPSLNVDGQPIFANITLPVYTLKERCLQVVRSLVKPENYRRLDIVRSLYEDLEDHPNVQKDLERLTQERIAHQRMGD
Chain of Protein cereblon/Bromodomain-containing protein 3 (Q15059 whole entry): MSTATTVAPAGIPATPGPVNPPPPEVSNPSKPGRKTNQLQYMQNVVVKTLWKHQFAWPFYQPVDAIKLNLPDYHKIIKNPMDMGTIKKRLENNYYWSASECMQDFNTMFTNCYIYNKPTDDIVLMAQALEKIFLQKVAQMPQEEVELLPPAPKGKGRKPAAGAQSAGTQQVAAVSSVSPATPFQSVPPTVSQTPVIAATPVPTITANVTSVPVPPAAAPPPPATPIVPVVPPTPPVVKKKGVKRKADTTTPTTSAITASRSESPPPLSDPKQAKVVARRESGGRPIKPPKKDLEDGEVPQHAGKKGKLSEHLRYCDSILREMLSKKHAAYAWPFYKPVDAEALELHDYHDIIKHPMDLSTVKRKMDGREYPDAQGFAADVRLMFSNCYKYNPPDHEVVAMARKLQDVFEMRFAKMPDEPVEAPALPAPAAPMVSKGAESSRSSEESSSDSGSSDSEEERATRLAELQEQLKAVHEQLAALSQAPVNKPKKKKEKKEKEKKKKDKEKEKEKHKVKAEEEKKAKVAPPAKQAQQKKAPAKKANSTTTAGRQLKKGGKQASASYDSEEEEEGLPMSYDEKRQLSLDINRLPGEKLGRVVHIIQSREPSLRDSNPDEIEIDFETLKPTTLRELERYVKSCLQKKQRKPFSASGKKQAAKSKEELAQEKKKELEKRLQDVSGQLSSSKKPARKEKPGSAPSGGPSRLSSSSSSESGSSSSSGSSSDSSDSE
Chain of Protein cereblon/Bromodomain-containing protein 3 (Q96SW2 whole entry): as the sequence (Q96SW2 whole entry) above
Chain of von Hippel-Lindau disease tumor suppressor/Bcl-2-like protein 1 (Q07817 whole entry): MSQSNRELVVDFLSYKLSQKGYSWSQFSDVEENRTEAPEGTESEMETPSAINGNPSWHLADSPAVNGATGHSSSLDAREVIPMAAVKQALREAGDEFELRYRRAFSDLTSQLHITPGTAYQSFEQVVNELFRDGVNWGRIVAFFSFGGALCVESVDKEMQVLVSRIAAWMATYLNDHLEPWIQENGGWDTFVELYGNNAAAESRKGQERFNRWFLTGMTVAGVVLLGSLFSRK
Chain of von Hippel-Lindau disease tumor suppressor/Bcl-2-like protein 1 (P40337 whole entry): as the sequence (P40337 whole entry) above
T1 sequence (Q96SW2 whole entry): as the sequence (Q96SW2 whole entry) above
T1 sequence (Q13422 whole entry): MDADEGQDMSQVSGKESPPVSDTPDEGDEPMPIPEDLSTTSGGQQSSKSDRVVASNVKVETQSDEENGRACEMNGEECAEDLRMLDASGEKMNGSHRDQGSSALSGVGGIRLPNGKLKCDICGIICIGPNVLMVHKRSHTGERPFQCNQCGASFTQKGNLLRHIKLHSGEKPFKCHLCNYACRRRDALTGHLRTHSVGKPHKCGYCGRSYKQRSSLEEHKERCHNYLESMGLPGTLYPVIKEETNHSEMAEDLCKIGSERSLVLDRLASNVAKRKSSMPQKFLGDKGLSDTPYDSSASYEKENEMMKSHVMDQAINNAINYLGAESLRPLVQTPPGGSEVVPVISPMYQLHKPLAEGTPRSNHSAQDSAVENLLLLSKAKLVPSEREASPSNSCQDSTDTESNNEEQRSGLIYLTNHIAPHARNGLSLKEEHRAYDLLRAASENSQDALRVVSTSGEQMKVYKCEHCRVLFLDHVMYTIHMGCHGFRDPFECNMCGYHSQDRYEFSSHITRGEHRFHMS
Chain of Protein cereblon/Cyclin-dependent kinase 6 (Q00534 whole entry): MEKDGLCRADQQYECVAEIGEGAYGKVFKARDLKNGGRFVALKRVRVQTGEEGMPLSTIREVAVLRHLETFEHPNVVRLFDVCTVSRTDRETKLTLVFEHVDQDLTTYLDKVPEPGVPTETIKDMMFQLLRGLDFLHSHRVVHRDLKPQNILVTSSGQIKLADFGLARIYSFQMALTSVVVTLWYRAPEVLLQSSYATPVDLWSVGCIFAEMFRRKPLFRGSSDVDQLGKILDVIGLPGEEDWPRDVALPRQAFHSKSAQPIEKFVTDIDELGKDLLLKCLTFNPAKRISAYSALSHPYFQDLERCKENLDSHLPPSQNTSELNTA
Chain of Protein cereblon/Cyclin-dependent kinase 6 (Q96SW2 whole entry): as the sequence (Q96SW2 whole entry) above
Chain of Protein cereblon/Cyclin-dependent kinase 4 (P11802 whole entry): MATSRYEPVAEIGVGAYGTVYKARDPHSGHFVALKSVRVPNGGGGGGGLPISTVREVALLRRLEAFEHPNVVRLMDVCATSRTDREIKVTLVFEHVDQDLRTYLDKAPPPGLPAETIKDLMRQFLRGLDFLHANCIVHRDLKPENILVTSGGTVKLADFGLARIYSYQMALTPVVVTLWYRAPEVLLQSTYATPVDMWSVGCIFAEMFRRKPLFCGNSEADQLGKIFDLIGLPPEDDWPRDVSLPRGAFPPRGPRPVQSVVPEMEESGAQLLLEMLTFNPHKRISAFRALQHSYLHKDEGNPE
Chain of Protein cereblon/Cyclin-dependent kinase 4 (Q96SW2 whole entry): as the sequence (Q96SW2 whole entry) above
Chain of von Hippel-Lindau disease tumor suppressor/Bromodomain-containing protein 4 (Homo sapiens) (P40337 whole entry, looked up, other chains not shown): as the sequence (P40337 whole entry) above

Structure (SMILES): Cc1ncsc1-c1ccc(CNC(=O)[C@@H]2C[C@@H](O)CN2C(=O)[C@@H](NC(=O)OCC(C)(COCCOCCOCCNC(=O)C[C@@H]2N=C(c3ccc(Cl)cc3)c3c(sc(C)c3C)-n3c(C)nnc32)COCCOCCOCCNC(=O)C[C@@H]2N=C(c3ccc(Cl)cc3)c3c(sc(C)c3C)-n3c(C)nnc32)C(C)(C)C)cc1
DC50 [1]: 1.1 nM
DC50 [2]: 3.3 nM

Structure (SMILES): Cc1ncsc1-c1ccc(NC(=O)[C@@H]2C[C@@H](O)CN2C(=O)[C@@H](NC(=O)COCCOCCOc2cc(OCC(=O)OC(C)(C)C)ccc2NC(=O)C[C@@H]2N=C(c3ccc(Cl)cc3)c3c(sc(C)c3C)-n3c(C)nnc32)C(C)(C)C)cc1
Emax [6]: 93%

Structure (SMILES): COc1cc(CC(=O)N[C@@H](Cc2ccccc2)C(=O)O[C@@H](Cc2ccc(C(F)(F)P(=O)(O)O)cc2)C(=O)N[C@@H](CCCCNC(=O)c2ccc(C)c(Br)c2)C(=O)NCc2cccc(CC(=O)N[C@H](C(=O)N3C[C@H](O)C[C@H]3C(=O)N[C@H](C)c3ccc(-c4scnc4C)cc3)C(C)(C)C)c2)ccc1O ({Phenylacetyl(4-OH,3-OMe)}-F[X1]K(Benzoyl(3-Br,4-Me))[NHCH2(1,3-C6H4)CH2CO][Tle][Hyp]-X2)
DC50 [10]: 14.1 nM
DC50 [11]: 8.7 nM

Structure (SMILES): Cc1sc2c(c1C)C(c1ccc(Cl)cc1)=N[C@@H](CC(=O)Nc1ccc(OCCOCCOCCOCCNc3cccc4c3C(=O)N(C3CCC(=O)NC3=O)C4=O)cc1)c1nnc(C)n1-2 (some centres not stated)
IC50 [15]: 14.5 nM

Structure (SMILES): Cc1cc(S(=O)(=O)NCCOCCOCCOCCOCCNc2cccc3c2C(=O)N(C2CCC(=O)NC2=O)C3=O)ccc1Nc1ncc(Br)c(Nc2cccc(F)c2C(N)=O)n1 (configuration not stated)
GR50 (OVCAR-8): 33.1 nM

Structure (SMILES): Cc1ncsc1-c1ccc([C@H](C)NC(=O)[C@@H]2C[C@@H](O)CN2C(=O)[C@@H](NC(=O)COCCCOCCNC(=O)C[C@@H]2N=C(c3ccc(Cl)cc3)c3c(sc(C)c3C)-n3c(C)nnc32)C(C)(C)C)cc1
DC50 [17]: < 5 nM
IC50 (CWR22R): < 1 nM
IC50 (VCaP): < 1 nM
IC50 [18]: < 1 nM

Second part, led by results:

DC50 [3]: 42 nM
DC50 (Cereblon/Ikaros [4]): 500 nM
Emax (Cereblon/Ikaros [5]): 90%
Structure (SMILES): CN1CCN(c2ccc(-c3cccc(CN4CCN(CCNC(=O)CCCCCCCNc5cccc6c5C(=O)N(C5CCC(=O)NC5=O)C6=O)CC4)c3)cc2NC(=O)c2c[nH]c(=O)cc2C(F)(F)F)CC1 (configuration not stated)

DC50 [7]: 2.3 nM
DC50 [8]: 2.1 nM
DC50 [9]: 15 nM
Structure (SMILES): Cc1ncsc1-c1ccc([C@H](C)NC(=O)[C@@H]2C[C@@H](O)CN2C(=O)[C@@H](NC(=O)OCC(C)(COCCOCCOCCNC(=O)C[C@@H]2N=C(c3ccc(Cl)cc3)c3c(sc(C)c3C)-n3c(C)nnc32)COCCOCCOCCNc2cc3c(cc2F)C(=O)N(C2CCC(=O)NC2=O)C3=O)C(C)(C)C)cc1 (some centres not stated)
EC50 (RKO): 111 nM

DC50 [12]: 97 nM
DC50 [13]: 300 nM
Structure (SMILES): CN(C)C(=O)c1cc2cnc(Nc3ccc(N4CCN(Cc5cn(CCCCCC(=O)Nc6cccc7c6C(=O)N(C6CCC(=O)NC6=O)C7=O)nn5)CC4)cn3)nc2n1C1CCCC1 (configuration not stated)

Emax [14]: > 100%
Structure (SMILES): CNC(=O)N1CCc2c(c(N3CCCc4cc(-c5cnn(C)c5)c(C(F)F)cc43)nn2C2CCN(C(=O)CCOCCOCCOCCOCCNc3ccc4c(c3)C(=O)N(C3CCC(=O)NC3=O)C4=O)CC2)C1 (configuration not stated)

DC50 [16]: 0.6 nM
Structure (SMILES): Cc1ncsc1-c1ccc([C@H](C)NC(=O)[C@@H]2C[C@@H](O)CN2C(=O)[C@@H](NC(=O)CN2CCN(CC(=O)N3CCN(C[C@]4(C)CCC(c5ccc(Cl)cc5)=C(CN5CCN(c6ccc(C(=O)NS(=O)(=O)c7ccc(N[C@H](CCN8C[C@H]9C[C@@H]8CO9)CSc8ccccc8)c(S(=O)(=O)C(F)(F)F)c7)cc6)CC5)C4)CC3)CC2)C(C)(C)C)cc1
